In ChEMBL document CHEMBL1201862, “PubChem BioAssay data set” (2004):
Activity calls are given as the source filed them.

Experiments:
[1] = HPDE-C7 pancreatic duct cell viability loss – fluorescence, HTS (AID 430); format: functional, cell-based; settings: Homo sapiens
[2] = test system: Streptococcus sp. 'group A'; test: Streptococcus pyogenes SK(-)GAS viability under kanamycin – luminescence, BacTiterGlo, confirmation, counter-screen for streptokinase expression inhibitor project, dose response (AID 1900); format: functional, organism-based
[3] = viability loss of HPDE-C7K cells – cell-based, fluorescence, HTS, primary screen (AID 431); format: functional; settings: Homo sapiens
[4] = test system: Streptococcus; test: GAS UMAA2166 growth inhibition – luminescence, BacTiterGlo, counter-screen for streptokinase expression inhibitor project, dose response (AID 1915); format: functional, organism-based;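 also: potency for reduction of bacterial viability or growth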
[5] = cells
[6] = viability of uninfected HEp-2 cells – cell-based, HTS, cytotoxicity control for RSV inhibitor project, dose response (AID 2410); format: functional; settings: human respiratory syncytial virus
[7] = biological target: T1, Sentrin-specific protease 8 (Homo sapiens, UniProt Q96LD8); format: functional;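 also: luminescence read-out of SENP8 inhibition, dose-response confirmation following an ultra-high-throughput screen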
T1 sequence (Q96LD8 whole entry): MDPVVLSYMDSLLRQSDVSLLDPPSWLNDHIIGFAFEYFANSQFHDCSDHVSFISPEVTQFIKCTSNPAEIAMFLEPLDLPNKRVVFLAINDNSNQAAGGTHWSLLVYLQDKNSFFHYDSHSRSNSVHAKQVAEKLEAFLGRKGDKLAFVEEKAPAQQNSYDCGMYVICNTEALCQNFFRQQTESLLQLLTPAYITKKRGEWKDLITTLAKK

[8] = biological target: T2, Sentrin-specific protease 7 (Homo sapiens, UniProt Q9BQF6); format: functional;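 also: Luminescence-based dose-response confirmation of ultra-high-throughput screening hits, measuring inhibition of SENP7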
T2 sequence (Q9BQF6 whole entry): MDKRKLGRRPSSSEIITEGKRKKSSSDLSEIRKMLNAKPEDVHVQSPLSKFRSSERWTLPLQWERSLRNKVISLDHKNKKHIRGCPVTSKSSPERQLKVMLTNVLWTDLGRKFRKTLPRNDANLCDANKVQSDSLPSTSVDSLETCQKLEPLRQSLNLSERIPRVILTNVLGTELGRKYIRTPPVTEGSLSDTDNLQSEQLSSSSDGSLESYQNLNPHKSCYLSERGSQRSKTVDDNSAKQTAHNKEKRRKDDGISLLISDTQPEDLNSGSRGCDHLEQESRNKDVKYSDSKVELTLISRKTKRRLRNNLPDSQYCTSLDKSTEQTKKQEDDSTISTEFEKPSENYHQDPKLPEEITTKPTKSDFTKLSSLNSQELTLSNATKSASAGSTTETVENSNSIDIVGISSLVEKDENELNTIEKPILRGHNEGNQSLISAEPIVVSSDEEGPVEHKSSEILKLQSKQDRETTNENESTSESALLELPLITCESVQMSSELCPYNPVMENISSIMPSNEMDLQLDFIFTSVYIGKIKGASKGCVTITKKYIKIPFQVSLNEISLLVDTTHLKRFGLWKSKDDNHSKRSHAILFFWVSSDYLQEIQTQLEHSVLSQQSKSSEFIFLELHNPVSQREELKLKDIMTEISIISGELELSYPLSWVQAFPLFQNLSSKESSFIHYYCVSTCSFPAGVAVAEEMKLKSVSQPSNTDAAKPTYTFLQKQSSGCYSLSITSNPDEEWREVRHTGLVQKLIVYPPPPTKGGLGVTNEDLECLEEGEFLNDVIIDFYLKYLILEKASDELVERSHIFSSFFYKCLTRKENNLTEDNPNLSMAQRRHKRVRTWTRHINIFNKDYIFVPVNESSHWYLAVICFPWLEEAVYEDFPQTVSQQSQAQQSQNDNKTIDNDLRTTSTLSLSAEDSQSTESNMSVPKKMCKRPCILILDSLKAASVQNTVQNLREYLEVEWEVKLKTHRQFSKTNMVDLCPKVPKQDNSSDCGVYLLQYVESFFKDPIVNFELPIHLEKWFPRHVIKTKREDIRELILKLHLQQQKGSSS

[9] = biological target: T3, Caspase-3 (Homo sapiens, UniProt P42574); format: functional;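 also: Dose-response selectivity test against caspase-3 for candidate inhibitors of sentrin-specific proteases (SENPs)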
T3 sequence (P42574 whole entry): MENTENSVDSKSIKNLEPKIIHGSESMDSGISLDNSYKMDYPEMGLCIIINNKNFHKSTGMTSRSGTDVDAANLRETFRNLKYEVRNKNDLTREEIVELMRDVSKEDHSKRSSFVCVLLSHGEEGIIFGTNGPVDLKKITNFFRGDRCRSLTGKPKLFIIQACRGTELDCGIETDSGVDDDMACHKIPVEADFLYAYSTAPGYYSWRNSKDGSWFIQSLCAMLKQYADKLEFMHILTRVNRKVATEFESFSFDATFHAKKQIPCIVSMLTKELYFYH

[10] = biological target: T4, Sentrin-specific protease 6 (Homo sapiens, UniProt Q9GZR1); format: functional;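 also: Luminescence-based dose-response confirmatory assay of SENP6 inhibition, following up an ultra-high-throughput screen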
T4 sequence (Q9GZR1 whole entry): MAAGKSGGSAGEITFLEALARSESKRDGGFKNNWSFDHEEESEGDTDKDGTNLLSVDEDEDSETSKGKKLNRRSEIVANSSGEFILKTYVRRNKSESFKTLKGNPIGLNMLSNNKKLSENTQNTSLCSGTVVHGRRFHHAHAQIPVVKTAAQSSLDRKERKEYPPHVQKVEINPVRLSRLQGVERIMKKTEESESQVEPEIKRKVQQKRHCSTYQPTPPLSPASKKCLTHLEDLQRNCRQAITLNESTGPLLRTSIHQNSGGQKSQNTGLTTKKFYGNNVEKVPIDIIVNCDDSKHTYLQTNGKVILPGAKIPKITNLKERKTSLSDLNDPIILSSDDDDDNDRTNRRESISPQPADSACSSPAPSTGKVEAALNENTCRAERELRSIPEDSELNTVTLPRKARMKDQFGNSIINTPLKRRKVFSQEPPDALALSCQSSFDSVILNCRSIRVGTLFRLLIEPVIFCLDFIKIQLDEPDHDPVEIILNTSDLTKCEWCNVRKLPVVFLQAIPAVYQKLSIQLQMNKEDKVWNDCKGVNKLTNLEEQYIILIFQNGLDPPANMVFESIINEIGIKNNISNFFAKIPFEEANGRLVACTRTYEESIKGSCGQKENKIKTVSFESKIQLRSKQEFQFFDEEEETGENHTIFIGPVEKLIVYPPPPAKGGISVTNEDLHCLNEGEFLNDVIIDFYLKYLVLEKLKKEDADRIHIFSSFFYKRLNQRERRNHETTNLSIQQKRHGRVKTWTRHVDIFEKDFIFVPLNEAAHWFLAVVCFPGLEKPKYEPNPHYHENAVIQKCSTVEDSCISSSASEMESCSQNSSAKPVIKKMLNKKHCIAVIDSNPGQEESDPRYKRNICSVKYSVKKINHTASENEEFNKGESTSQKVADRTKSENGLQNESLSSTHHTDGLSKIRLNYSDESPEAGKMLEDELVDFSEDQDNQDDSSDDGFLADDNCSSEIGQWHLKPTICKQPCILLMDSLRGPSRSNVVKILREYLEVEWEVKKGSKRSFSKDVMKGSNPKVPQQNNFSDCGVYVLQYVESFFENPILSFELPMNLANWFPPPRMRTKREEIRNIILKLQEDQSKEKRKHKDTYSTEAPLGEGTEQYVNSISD

[11] = cells; format: functional, cell-based
[12] = cells; format: functional, cell-based; remark: listed apart in the source
[13] = Luminescence Cell-Based Dose Response HTS to Identify Inhibitors of 5'UTR Stem-Loop Driven Prion Protein mRNA Translation in H4 Neuroglioblastoma Cells. [Related pubchem assays: 1827 (Project Summary), 1813 (Primary HTS)]; format: functional
[14] = biological target: DNA dC->dU-editing enzyme APOBEC-3A (Homo sapiens, UniProt P31941); test: Dose Response confirmation of small molecule APOBEC3A DNA Deaminase Inhibitors via a fluorescence-based single-stranded DNA deaminase assay. [Related pubchem assays (depositor defined):AID493011, AID493024]; format: functional
[15] = biological target: DNA dC->dU-editing enzyme APOBEC-3G (Homo sapiens, UniProt Q9HC16); format: functional;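 also: Dose-response counterscreen measuring inhibition of APOBEC3G DNA deaminase activity, run while confirming APOBEC3A inhibitors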
[16] = biological target: Eukaryotic translation initiation factor 4E (Mus musculus, UniProt P63073); test: blockers of eIF4G binding by eIF4E – biochemical, TR-FRET, dose response (AID 855); format: functional;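 also: potency for disrupting eIF4E binding to eIF4GI seen as loss of FRET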
Eukaryotic translation initiation factor 4E, sequence (P63073 whole entry): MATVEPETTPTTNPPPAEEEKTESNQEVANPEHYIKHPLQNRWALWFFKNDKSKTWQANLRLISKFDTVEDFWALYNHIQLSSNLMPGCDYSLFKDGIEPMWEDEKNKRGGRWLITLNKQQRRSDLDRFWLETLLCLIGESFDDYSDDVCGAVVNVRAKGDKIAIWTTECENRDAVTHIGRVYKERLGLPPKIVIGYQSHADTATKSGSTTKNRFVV

DNA dC->dU-editing enzyme APOBEC-3G, sequence (Q9HC16 whole entry): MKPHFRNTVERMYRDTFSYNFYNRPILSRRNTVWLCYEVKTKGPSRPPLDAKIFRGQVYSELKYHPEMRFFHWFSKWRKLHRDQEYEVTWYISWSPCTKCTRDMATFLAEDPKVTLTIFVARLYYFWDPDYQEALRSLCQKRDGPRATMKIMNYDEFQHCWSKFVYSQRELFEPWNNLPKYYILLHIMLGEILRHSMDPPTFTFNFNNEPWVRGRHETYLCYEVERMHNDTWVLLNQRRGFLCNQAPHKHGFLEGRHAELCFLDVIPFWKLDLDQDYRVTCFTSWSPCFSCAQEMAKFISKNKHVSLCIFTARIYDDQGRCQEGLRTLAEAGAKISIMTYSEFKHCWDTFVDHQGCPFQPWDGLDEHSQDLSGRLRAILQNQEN
DNA dC->dU-editing enzyme APOBEC-3A, sequence (P31941 whole entry): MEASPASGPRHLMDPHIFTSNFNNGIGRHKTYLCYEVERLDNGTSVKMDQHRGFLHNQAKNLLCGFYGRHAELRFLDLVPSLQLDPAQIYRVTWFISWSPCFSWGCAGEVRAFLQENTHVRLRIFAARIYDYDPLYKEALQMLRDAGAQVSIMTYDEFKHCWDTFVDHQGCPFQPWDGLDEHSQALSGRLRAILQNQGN

For C=CCN1C(=O)NC(=O)/C(=C(/CC)Nc2ccc(N(CC)CC)cc2)C1=O, the EC50 [1] was > 20 µM (not active), the EC50 [2] was 1.23 µM (active) and the EC50 [3] was > 20 µM (not active). For the same compound, the EC50 [4] was 2.03 µM (active).
In the case of Cc1cc(C)c(S(=O)(=O)N2CCCCC2CCNC(=O)C(=O)NC2CC2)c(C)c1 (configuration not stated), the IC50 [5] is reported as 4.37 µM (active) and the CC50 [6] is reported as 20.3 µM (active).
In the case of CCOC(=O)c1ccc(NC(=O)/C=C/c2cccs2)cc1, the IC50 [7] is reported as 14.5 µM (active), the IC50 [8] is reported as 4.96 µM (active) and the IC50 [9] is reported as 21.6 µM (active). For the same compound, the IC50 [10] was 15 µM (active).
In the case of COc1ccc(N(CC(=O)NC2CCCCC2)C(=O)c2ccc(C)s2)c(OC)c1, the IC50 [5] is reported as 10.9 µM (active) and the CC50 [6] is reported as 43.8 µM (active).
With O=C(O)c1ccc2cc(-c3ccccc3)[nH]c2c1 the IC50 [7] was 1.53 µM (active), the IC50 [8] was 0.938 µM (active) and the EC50 [11] was 2.55 µM (active). For the same compound, the EC50 [12] was > 350 µM (not active), the IC50 [9] was 1.22 µM (active) and the IC50 [10] was 1.08 µM (active). For the same compound, the EC50 [13] was 11.8 µM (inconclusive).
In the case of O=[N+]([O-])c1cccc(/C=N/Nc2ccccn2)c1, the IC50 [7] is reported as > 100 µM (inactive), the IC50 [8] is reported as 7.65 µM (active) and the IC50 [9] is reported as 8.82 µM (active). For the same compound, the IC50 [10] was > 100 µM (inactive).
For CC(=O)c1ccc[n+](CC(=O)NC(C)c2ccccc2)c1 (configuration not stated), the IC50 [14] was 3.57 µM (active) and the IC50 [15] was 6.17 µM (active).
For CC1CCc2nn(CC(=O)N3CCCCCC3)cc2C1 (configuration not stated), the IC50 [16] was > 64 µM (inactive).
For COc1ccccc1/C=C/C(=O)NCC(=O)N/N=C(/C)c1ccc(Cl)cc1, the IC50 [5] was 25.4 µM (active).
